Source: patent publication US10273210B2, “Pyridine compound” (Sumitomo Chemical Company, Limited, priority 2015, dated 2019)

Experiments:
[1] = tested on: cotton aphid (Aphis gossypii); experiment: Test Example 1: foliar spray on cucumber seedlings infested with cotton aphid, controlling value; type: in vivo; details: 120 h, spray 10 mL/seedling on cucumber, 5 days after spraying, 25° C.
Text: Controlling value (%)={1−(Cb×Tai)/(Cai×Tb)}×100 wherein the symbols in the formula represent the following meanings. Cb: Number of the test insects in untreated group; Cai: Number of the surviving insects at the time of the investigation in untreated group; Tb: Number of the test insects in treated group; Tai: Number of the surviving insects at the time of the investigation in treated group; Here the “untreated group” represents a group where a similar treatment procedure to that of the treated group except not using each test compound is done.

[2] = tested on: housefly (Musca domestica); experiment: whole plant or invertebrate; type: in vivo; details: 24 h, read-out: mortality of insects
Protocol: A bottom of a plastic cup having a diameter of 5.5 cm is lined with the same size of a filter paper, and each of the diluted solutions (0.7 mL) is added dropwise on the filter paper, and sucrose (30 mg) is homogeneously placed into the plastic cup as a bait.

Row | Compound | pest or weed control at 500 ppm [1] [%] | pest or weed control at 200 ppm [1] [%] | mortality at 500 ppm [2] [%]
1 | CCS(=O)(=O)c1cc(N)ccc1-c1ccc(OCC(F)(F)C(F)(F)F)cn1 [Present compound 53] | ≥ 90 |  | 
2 | CCSc1cc(C#N)ccc1-c1ccc(OCC(F)(F)C(F)(F)F)cn1 [Present compound 59] | ≥ 90 | ≥ 90 | 
3 | CCS(=O)(=O)c1cc(C#N)ccc1-c1ccc(OCC(F)(F)C(F)(F)F)cn1 [Present compound 60] | ≥ 90 | ≥ 90 | 
4 | CCS(=O)(=O)c1cc(C(=O)O)ccc1-c1ccc(OCC(F)(F)C(F)(F)F)cn1 [Present compound 61] | ≥ 90 | ≥ 90 | 
5 | CCS(=O)(=O)c1ccc(N)cc1-c1ccc(OCC(F)(F)C(F)(F)F)cn1 [Present compound 62] | ≥ 90 | ≥ 90 | 
6 | CCS(=O)(=O)c1cc(NC(=O)C2CC2)ccc1-c1ccc(OCC(F)(F)C(F)(F)F)cn1 [Present compound 63] | ≥ 90 |  | 
7 | CCS(=O)(=O)c1cc(-n2cncn2)ccc1-c1ccc(OCC(F)(F)C(F)(F)F)cn1 [Present compound 67] | ≥ 90 | ≥ 90 | ≥ 100
8 | CCS(=O)(=O)c1cc(-c2ccccn2)ccc1-c1ccc(OCC(F)(F)C(F)(F)F)cn1 [Present compound 68] | ≥ 90 | ≥ 90 | 
